Data: patent publication US20250059185A1 (Hoffmann-La Roche Inc., priority 2021, published 2025)
Structures can show the parent of a compound that is named as a salt.

Target: MAGL (Homo sapiens (Human), UniProt Q99685)
Test: 2-AG assay (MAGL inhibitory activity, hydrolysis of 2-arachidonoylglycerol followed by mass spectrometry)
Assay type: biochemical
Conditions: 50 pM MAGL protein, 15 min pre-incubation, 30 min incubation at RT
Source text: Compounds of formula (II) were profiled for MAGL inhibitory activity by determining the enzymatic activity by following the hydrolysis of the natural substrate 2-arachidonoylglycerol (2-AG) resulting in arachidonic acid, which can be followed by mass spectrometry. This assay is hereinafter abbreviated “2-AG assay”.
Compounds of formula (II) were profiled for MAGL inhibitory activity by determining the enzymatic activity by following the hydrolysis of the natural substrate 2-arachidonoylglycerol (2-AG) resulting in arachidonic acid, which can be followed by mass spectrometry. This assay is hereinafter abbreviated “2-AG assay”. The 2-AG assay was carried out in 384 well polypropylene assay plates. Compound dilutions were made in 100% DMSO in a polypropylene plate in 3-fold dilution steps to give a final concentration range in the assay from 12.5 μM to 0.8 pM. Compound dilutions were added to MAGL protein in assay buffer (50 mM TRIS, 1 mM EDTA, 0.01% (v/v) Tween-20, 2.5% (v/v) DMSO). After shaking, the plate was incubated for 15 min at RT. To start the reaction, 2-arachidonoylglycerol in assay buffer was added. The final concentrations in the assay was 50 pM for MAGL protein and […] 2-arachidonoylglyerol. After shaking and 30 min incubation at RT, the reaction was quenched by the addition of two assay volumes of acetonitrile containing 4 μM of d8-arachidonic acid. The amount of arachidonic acid formed was traced by an online SPE system (Agilent Rapidfire) coupled to a triple quadrupole mass spectrometer. A C18 SPE cartridge (Agilent G9205A) was used in an acetonitrile/water liquid setup. The mass spectrometer was operated in negative electrospray mode following the mass transitions 303.1→259.1 for arachidonic acid and 311.1→267.0 for d8-arachidonic acid. The activity of the compounds was calculated based on the ratio of intensities [arachidonic acid/d8-arachidonic acid].

Sequence of MAGL (Q99685 whole entry, species assumed): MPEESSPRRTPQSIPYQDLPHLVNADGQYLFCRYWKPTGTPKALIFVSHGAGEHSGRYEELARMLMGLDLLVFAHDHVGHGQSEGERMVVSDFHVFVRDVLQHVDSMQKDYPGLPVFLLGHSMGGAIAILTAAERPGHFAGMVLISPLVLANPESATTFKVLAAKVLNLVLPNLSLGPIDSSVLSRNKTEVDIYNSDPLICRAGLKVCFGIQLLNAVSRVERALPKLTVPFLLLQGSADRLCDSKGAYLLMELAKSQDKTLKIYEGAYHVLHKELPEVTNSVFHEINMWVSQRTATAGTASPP

Row | Compound | IC50 [nM]
1 | CC1c2nn(C)c(-c3cc(F)cc(F)c3)c2CCN1C(=O)c1cc(F)cc(OCC2CNC(=O)C2)c1Cl (racemic) [Example 40, 4-[[2-Chloro-3-[3-(3,5-difluorophenyl)-2,7-dimethyl-5,7-dihydro-4H-pyrazolo[3,4-c]pyridine-6-carbonyl]-5-fluoro-phenoxy]methyl]pyrrolidin-2-one] | 293
2 | CC1c2nn(C)c(-c3cc(F)cc(F)c3)c2CCN1C(=O)c1cc(F)cc(OCC2CNC(=O)C2)c1Cl (single isomer, unassigned) [Example 38, 4-[[2-Chloro-3-[3-(3,5-difluorophenyl)-2,7-dimethyl-5,7-dihydro-4H-pyrazolo[3,4-c]pyridine-6-carbonyl]-5-fluoro-phenoxy]methyl]pyrrolidin-2-one] | 0.5
3 | CC1c2nn(C)c(-c3cc(F)cc(F)c3)c2CCN1C(=O)c1cc(F)cc(OCC2CNC(=O)C2)c1Cl (single isomer, unassigned) [Example 39, 4-[[2-Chloro-3-[3-(3,5-difluorophenyl)-2,7-dimethyl-5,7-dihydro-4H-pyrazolo[3,4-c]pyridine-6-carbonyl]-5-fluoro-phenoxy]methyl]pyrrolidin-2-one] | 169
4 | C[C@@H]1c2nn(C)c(-c3cc(F)cc(F)c3)c2CCN1C(=O)c1ccc(CCC2CNC(=O)C2)cc1Cl (single isomer, unassigned) [Example 46, 4-[2-[3-Chloro-4-[3-(3,5-difluorophenyl)-2,7-dimethyl-5,7-dihydro-4H-pyrazolo[3,4-c]pyridine-6-carbonyl]phenyl]ethyl]pyrrolidin-2-one] | 258
5 | C[C@H]1c2nn(C)c(-c3cc(F)cc(F)c3)c2CCN1C(=O)c1cc(F)cc(OCC2CNC(=O)O2)c1Cl (single isomer, unassigned) [Example 49, 5-[[2-Chloro-3-[3-(3,5-difluorophenyl)-2,7-dimethyl-5,7-dihydro-4H-pyrazolo[3,4-c]pyridine-6-carbonyl]-5-fluoro-phenoxy]methyl]oxazolidin-2-one] | 1
6 | C[C@H]1c2nn(C)c(-c3cc(F)cc(F)c3)c2CCN1C(=O)c1cc(F)cc(OCC2CNC(=O)O2)c1Cl (single isomer, unassigned) [Example 50, 5-[[2-Chloro-3-[3-(3,5-difluorophenyl)-2,7-dimethyl-5,7-dihydro-4H-pyrazolo[3,4-c]pyridine-6-carbonyl]-5-fluoro-phenoxy]methyl]oxazolidin-2-one] | 5
7 | C[C@@H]1c2nn(C)c(-c3cc(F)cc(F)c3)c2CCN1C(=O)c1cc(F)cc(OCC2CNC(=O)O2)c1Cl (single isomer, unassigned) [Example 51, 5-[[2-Chloro-3-[3-(3,5-difluorophenyl)-2,7-dimethyl-5,7-dihydro-4H-pyrazolo[3,4-c]pyridine-6-carbonyl]-5-fluoro-phenoxy]methyl]oxazolidin-2-one] | 187
8 | C[C@@H]1c2nn(C)c(-c3cc(F)cc(F)c3)c2CCN1C(=O)c1cc(F)cc(OCC2CNC(=O)O2)c1Cl (single isomer, unassigned) [Example 52, 5-[[2-Chloro-3-[3-(3,5-difluorophenyl)-2,7-dimethyl-5,7-dihydro-4H-pyrazolo[3,4-c]pyridine-6-carbonyl]-5-fluoro-phenoxy]methyl]oxazolidin-2-one] | 2000
9 | C[C@H]1c2nn(C)c(-c3cc(F)cc(F)c3)c2CCN1C(=O)c1ncnn1[C@H]1CCNC1 (single isomer, unassigned) [Example 54, [3-(3,5-Difluorophenyl)-2,7-dimethyl-5,7-dihydro-4H-pyrazolo[3,4-c]pyridin-6-yl]-(2-pyrrolidin-3-yl-1,2,4-triazol-3-yl)methanone; hydrochloride] | 714
10 | C[C@H]1c2nn(C)c(-c3cc(F)cc(F)c3)c2CCN1C(=O)c1cc(Cl)cc(OC[C@@H]2CNC(=O)O2)c1Cl (single isomer, unassigned) [Example 108] | 294
11 | C[C@H]1c2nn(C)c(-c3cc(F)cc(F)c3)c2CCN1C(=O)c1cc(Cl)cc(OC[C@H]2CNC(=O)O2)c1Cl (single isomer, unassigned) [Example 109] | 371
12 | C[C@H]1c2nn(C)c(-c3cc(F)cc(F)c3)c2CCN1C(=O)c1cc(F)cc(OC[C@@H]2CNC(=O)N2)c1Cl (single isomer, unassigned) [Example 113] | 2.48
13 | C[C@H]1c2nn(C)c(-c3cc(F)cc(F)c3)c2CCN1C(=O)c1cc(F)cc(OC[C@@H]2CNC(=O)N2)c1Cl (single isomer, unassigned) [Example 114] | 929
14 | C[C@H]1c2nn(C)c(-c3cc(F)cc(F)c3)c2CCN1C(=O)c1cc(F)cc(OCC2CNC(=O)C2)c1Cl (stereo in doubt) [Example 37, 4-[[2-Chloro-3-[3-(3,5-difluorophenyl)-2,7-dimethyl-5,7-dihydro-4H-pyrazolo[3,4-c]pyridine-6-carbonyl]-5-fluoro-phenoxy]methyl]pyrrolidin-2-one] | 5
15 | C[C@H]1c2nn(C)c(-c3cc(F)cc(F)c3)c2CCN1C(=O)c1ccc(CCC2CNC(=O)C2)cc1Cl (stereo in doubt) [Example 47, 4-[2-[3-Chloro-4-[3-(3,5-difluorophenyl)-2,7-dimethyl-5,7-dihydro-4H-pyrazolo[3,4-c]pyridine-6-carbonyl]phenyl]ethyl]pyrrolidin-2-one] | 127
16 | COc1cccc(C(=O)N2CCc3c(nn(C)c3-c3cc(Cl)cc(CNS(C)(=O)=O)c3)[C@@H]2C)c1Cl [Example 1, N-[[3-Chloro-5-[(7S)-6-(2-chloro-3-methoxy-benzoyl)-2,7-dimethyl-5,7-dihydro-4H-pyrazolo[3,4-c]pyridin-3-yl]phenyl]methyl]methanesulfonamide] | 14
17 | COc1cccc(C(=O)N2CCc3c(nn(C)c3-c3cc(Cl)cc(CNS(C)(=O)=O)c3)[C@H]2C)c1Cl [Example 2, N-[[3-Chloro-5-[(7R)-6-(2-chloro-3-methoxy-benzoyl)-2,7-dimethyl-5,7-dihydro-4H-pyrazolo[3,4-c]pyridin-3-yl]phenyl]methyl]methanesulfonamide] | 1650
18 | CNS(=O)(=O)Cc1cc(Cl)cc(-c2c3c(nn2C)[C@H](C)N(C(=O)c2cccc(OC)c2Cl)CC3)c1 [Example 3, 1-[3-Chloro-5-[(7S)-6-(2-chloro-3-methoxy-benzoyl)-2,7-dimethyl-5,7-dihydro-4H-pyrazolo[3,4-c]pyridin-3-yl]phenyl]-N-methyl-methanesulfonamide] | 63
19 | COc1cccc(C(=O)N2CCc3c(nn(C)c3-c3cc(Cl)cc(S(N)(=O)=O)c3)[C@@H]2C)c1Cl [Example 4, 3-Chloro-5-[(7S)-6-(2-chloro-3-methoxy-benzoyl)-2,7-dimethyl-5,7-dihydro-4H-pyrazolo[3,4-c]pyridin-3-yl]benzenesulfonamide] | 27
20 | COc1cccc(C(=O)N2CCc3c(nn(C)c3-c3cc(Cl)cc(C4(S(C)(=O)=O)CC4)c3)[C@@H]2C)c1Cl [Example 5, (2-Chloro-3-methoxy-phenyl)-[(7S)-3-[3-chloro-5-(1-methylsulfonylcyclopropyl)phenyl]-2,7-dimethyl-5,7-dihydro-4H-pyrazolo[3,4-c]pyridin-6-yl]methanone] | 59
21 | COc1cccc(C(=O)N2CCc3c(nn(C)c3-c3cc(Cl)cc(CS(C)(=O)=O)c3)[C@@H]2C)c1Cl [Example 6, (2-Chloro-3-methoxy-phenyl)-[(7S)-3-[3-chloro-5-(methylsulfonylmethyl)phenyl]-2,7-dimethyl-5,7-dihydro-4H-pyrazolo[3,4-c]pyridin-6-yl]methanone] | 84
22 | COc1cccc(C(=O)N2CCc3c(nn(C)c3-c3cc(Cl)cc(C4(NS(C)(=O)=O)CC4)c3)[C@@H]2C)c1Cl [Example 7, N-[1-[3-Chloro-5-[(7S)-6-(2-chloro-3-methoxy-benzoyl)-2,7-dimethyl-5,7-dihydro-4H-pyrazolo[3,4-c]pyridin-3-yl]phenyl]cyclopropyl]methanesulfonamide] | 17
23 | COc1cccc(C(=O)N2CCc3c(nn(C)c3-c3cncc(C(F)(F)F)n3)[C@@H]2C)c1Cl [Example 8, (2-Chloro-3-methoxy-phenyl)-[(7S)-2,7-dimethyl-3-[6-(trifluoromethyl)pyrazin-2-yl]-5,7-dihydro-4H-pyrazolo[3,4-c]pyridin-6-yl]methanone] | 183
24 | COc1cccc(C(=O)N2CCc3c(nn(C)c3-c3cnc(C(F)(F)F)nc3)[C@@H]2C)c1Cl [Example 9, (2-Chloro-3-methoxy-phenyl)-[(7S)-2,7-dimethyl-3-[2-(trifluoromethyl)pyrimidin-5-yl]-5,7-dihydro-4H-pyrazolo[3,4-c]pyridin-6-yl]methanone] | 311
25 | COc1cccc(C(=O)N2CCc3c(nn(C)c3-c3cncc(S(C)(=O)=O)c3)[C@@H]2C)c1Cl [Example 10, (2-Chloro-3-methoxy-phenyl)-[(7S)-2,7-dimethyl-3-(5-methylsulfonyl-3-pyridyl)-5,7-dihydro-4H-pyrazolo[3,4-c]pyridin-6-yl]methanone] | 4870
